Measurements reported in ChEMBL document CHEMBL4808187, “Antiarrhythmic Hit to Lead Refinement in a Dish Using Patient-Derived iPSC Cardiomyocytes” (J Med Chem, 2021).

system: not listed separately; assay: Antiarrhythmic activity in patient-derived hiPSC-CMs carrying LQT3 mutation assessed as cessation dose for cell beating; assay type: functional, Homo sapiens, iPSC-CM; settings: not given

SMILES | Activity [µM]
Cl.NC(COc1cc(C(F)(F)F)cc(C(F)(F)F)c1)c1ccccc1 (stereo not given) | 66
Cc1cc(C)cc(OCC(N)c2ccccc2)c1.Cl (racemic) | 66
COCCNC(COc1cccc(C)c1C)c1ccccc1.Cl (racemic) | 200
Cl.NC(COc1ccccc1C(F)(F)F)c1ccccc1 (racemic) | 66
Cc1ccc(C)c(OCC(N)C2CC2)c1.Cl (stereo not given) | 200

system: not listed separately; assay: Antiarrhythmic activity in patient-derived hiPSC-CMs carrying LQT3 mutation assessed as shortening of action potential duration; assay type: functional, Homo sapiens; settings: ipsc-cm; read-out: EC50

SMILES | EC50 [µM]
Cl.NC(COc1cc(C(F)(F)F)cc(C(F)(F)F)c1)c1ccccc1 (stereo not given) | 23.1
Cc1cc(C)cc(OCC(N)c2ccccc2)c1.Cl (racemic) | < 0.8
COCCNC(COc1cccc(C)c1C)c1ccccc1.Cl (racemic) | 5.73
Cl.NC(COc1ccccc1C(F)(F)F)c1ccccc1 (racemic) | < 0.8
Cc1ccc(C)c(OCC(N)C2CC2)c1.Cl (stereo not given) | 0.022

system: not listed separately; assay: Antiarrhythmic activity in patient-derived hiPSC-CMs carrying LQT3 mutation assessed as fold shortening of action potential duration relative to control; assay type: functional, Homo sapiens, iPSC-CM; settings: not given

SMILES | fold change (FC)
Cl.NC(COc1cc(C(F)(F)F)cc(C(F)(F)F)c1)c1ccccc1 (stereo not given) | 1.208
Cc1cc(C)cc(OCC(N)c2ccccc2)c1.Cl (racemic) | 1.279
COCCNC(COc1cccc(C)c1C)c1ccccc1.Cl (racemic) | 1.508
Cl.NC(COc1ccccc1C(F)(F)F)c1ccccc1 (racemic) | 1.783
Cc1ccc(C)c(OCC(N)C2CC2)c1.Cl (stereo not given) | 1.11

system: not listed separately; assay: Antiarrhythmic activity in patient-derived hiPSC-CMs carrying LQT3 mutation assessed as shortening dose of action potential; assay type: functional, Homo sapiens, iPSC-CM; settings: not given

SMILES | Activity [µM]
Cl.NC(COc1cc(C(F)(F)F)cc(C(F)(F)F)c1)c1ccccc1 (stereo not given) | 22
Cc1cc(C)cc(OCC(N)c2ccccc2)c1.Cl (racemic) | 7.4
COCCNC(COc1cccc(C)c1C)c1ccccc1.Cl (racemic) | 133
Cl.NC(COc1ccccc1C(F)(F)F)c1ccccc1 (racemic) | 22
Cc1ccc(C)c(OCC(N)C2CC2)c1.Cl (stereo not given) | 66

system: not listed separately; assay: Antiarrhythmic activity in hiPSC-CMs assessed as cessation dose of cell beating; settings: human, ipsc-cm

SMILES | Activity
Cl.NC(COc1cc(C(F)(F)F)cc(C(F)(F)F)c1)c1ccccc1 (stereo not given) | 133 µM
Cc1cc(C)cc(OCC(N)c2ccccc2)c1.Cl (racemic) | 66 µM
COCCNC(COc1cccc(C)c1C)c1ccccc1.Cl (racemic) | Not Active
Cl.NC(COc1ccccc1C(F)(F)F)c1ccccc1 (racemic) | 66 µM
Cc1ccc(C)c(OCC(N)C2CC2)c1.Cl (stereo not given) | 200 µM

system: not listed separately; assay: Antiarrhythmic activity in hiPSC-CMs assessed as dose for induction of early after depolarizations; settings: human, ipsc-cm

SMILES | Activity
Cl.NC(COc1cc(C(F)(F)F)cc(C(F)(F)F)c1)c1ccccc1 (stereo not given) | Not Active
Cc1cc(C)cc(OCC(N)c2ccccc2)c1.Cl (racemic) | Not Active
COCCNC(COc1cccc(C)c1C)c1ccccc1.Cl (racemic) | Not Active
Cl.NC(COc1ccccc1C(F)(F)F)c1ccccc1 (racemic) | Not Active
Cc1ccc(C)c(OCC(N)C2CC2)c1.Cl (stereo not given) | 66 µM

system: not listed separately; assay: Antiarrhythmic activity in hiPSC-CMs assessed as prolongation of action potential; parameters: species or system Homo sapiens, iPSC-CM; settings: ipsc-cm

SMILES | EC50
Cl.NC(COc1cc(C(F)(F)F)cc(C(F)(F)F)c1)c1ccccc1 (stereo not given) | Not Active
Cc1cc(C)cc(OCC(N)c2ccccc2)c1.Cl (racemic) | Not Active
Cl.NC(COc1ccccc1C(F)(F)F)c1ccccc1 (racemic) | Not Active

system: not listed separately; assay: Antiarrhythmic activity in hiPSC-CMs assessed as fold prolongation of action potential relative to control; settings: human, ipsc-cm

SMILES | Activity | fold change (FC)
COCCNC(COc1cccc(C)c1C)c1ccccc1.Cl (racemic) | Not Active | –
Cc1ccc(C)c(OCC(N)C2CC2)c1.Cl (stereo not given) | – | 1.686

system: not listed separately; assay: Inhibition of sodium channel (unknown origin) expressed in HEK cells assessed as reduction in late inward sodium current by automated patch clamp method; assay type: cell-based; settings: Homo sapiens, HEK293

SMILES | IC50 [µM]
Cl.NC(COc1cc(C(F)(F)F)cc(C(F)(F)F)c1)c1ccccc1 (stereo not given) | 1.03
Cc1cc(C)cc(OCC(N)c2ccccc2)c1.Cl (racemic) | 0.2
COCCNC(COc1cccc(C)c1C)c1ccccc1.Cl (racemic) | 0.747
Cl.NC(COc1ccccc1C(F)(F)F)c1ccccc1 (racemic) | 1.04
Cc1ccc(C)c(OCC(N)C2CC2)c1.Cl (stereo not given) | 51.8

system: not listed separately; assay: Inhibition of sodium channel (unknown origin) expressed in HEK cells assessed as reduction in peak sodium current by automated patch clamp method; assay type: cell-based; settings: Homo sapiens, HEK293

SMILES | IC50 [µM]
Cl.NC(COc1cc(C(F)(F)F)cc(C(F)(F)F)c1)c1ccccc1 (stereo not given) | 20
Cc1cc(C)cc(OCC(N)c2ccccc2)c1.Cl (racemic) | 20.1
COCCNC(COc1cccc(C)c1C)c1ccccc1.Cl (racemic) | 25.8
Cl.NC(COc1ccccc1C(F)(F)F)c1ccccc1 (racemic) | 41.1
Cc1ccc(C)c(OCC(N)C2CC2)c1.Cl (stereo not given) | 162

system: not listed separately; assay: Inhibition of potassium channel (unknown origin) expressed in CHO cells assessed as reduction in potassium current by automated patch clamp method; assay type: cell-based; settings: not given

SMILES | IC50 [µM]
Cl.NC(COc1cc(C(F)(F)F)cc(C(F)(F)F)c1)c1ccccc1 (stereo not given) | 7.16
Cc1cc(C)cc(OCC(N)c2ccccc2)c1.Cl (racemic) | 6.2
COCCNC(COc1cccc(C)c1C)c1ccccc1.Cl (racemic) | 27.6
Cl.NC(COc1ccccc1C(F)(F)F)c1ccccc1 (racemic) | 37.5
Cc1ccc(C)c(OCC(N)C2CC2)c1.Cl (stereo not given) | 98

organism: Homo sapiens; assay: Selectivity index, ratio of IC50 for sodium channel (unknown origin) expressed in HEK cells assessed as reduction in peak sodium current to IC50 for sodium channel (unknown origin) expressed in HEK cells assessed as reduction in late inward sodium current; assay type: cell-based; settings: not given

SMILES | Ratio IC50
Cl.NC(COc1cc(C(F)(F)F)cc(C(F)(F)F)c1)c1ccccc1 (stereo not given) | 19.4
COCCNC(COc1cccc(C)c1C)c1ccccc1.Cl (racemic) | 34.5

organism: Homo sapiens; assay: Selectivity index, ratio of IC50 for potassium channel (unknown origin) expressed in HEK cells assessed as reduction in potassium current to IC50 for sodium channel (unknown origin) expressed in HEK cells assessed as reduction in late inward sodium current; assay type: cell-based; settings: not given

SMILES | Ratio IC50
Cc1ccc(C)c(OCC(N)C2CC2)c1.Cl (stereo not given) | 1.9

system: not listed separately; assay: Chemical stability in pH 7.4 phosphate buffer assessed as half life at 100 uM by RP-HPLC analysis; assay type: physicochemical; settings: not given

SMILES | half-life at 100 µM [days]
Cc1cc(C)cc(OCC(N)c2ccccc2)c1.Cl (racemic) | > 30
COCCNC(COc1cccc(C)c1C)c1ccccc1.Cl (racemic) | > 30
Cl.NC(COc1ccccc1C(F)(F)F)c1ccccc1 (racemic) | > 30

system: not listed separately; assay: Chemical stability in pH 3 phosphate buffer assessed as half life at 100 uM by RP-HPLC analysis; assay type: physicochemical; settings: not given

SMILES | half-life at 100 µM [days]
COCCNC(COc1cccc(C)c1C)c1ccccc1.Cl (racemic) | > 30
Cl.NC(COc1ccccc1C(F)(F)F)c1ccccc1 (racemic) | > 15

system: not listed separately; assay: Tmax in Sprague-Dawley rat at 5 mg/kg, iv measured upto 25 hrs by LCMS analysis; assay type: ADME, organism-based; settings: in vivo

SMILES | Tmax [days]
Cl.NC(COc1ccccc1C(F)(F)F)c1ccccc1 (racemic) | 0.00708

system: not listed separately; assay: Tmax in Sprague-Dawley rat at 25 mg/kg, po measured upto 25 hrs by LCMS analysis; assay type: ADME, organism-based; settings: in vivo

SMILES | Tmax [days]
Cl.NC(COc1ccccc1C(F)(F)F)c1ccccc1 (racemic) | 0.0625

system: not listed separately; assay: Cmax in Sprague-Dawley rat at 5 mg/kg, iv measured upto 25 hrs by LCMS analysis; assay type: ADME, organism-based; parameters: route intravenous, dose 5 mg/kg, time <=25; settings: in vivo

SMILES | Cmax [ng/mL]
Cl.NC(COc1ccccc1C(F)(F)F)c1ccccc1 (racemic) | 250

system: not listed separately; assay: Cmax in Sprague-Dawley rat at 25 mg/kg, po measured upto 25 hrs by LCMS analysis; assay type: ADME, organism-based; parameters: route oral, dose 25 mg/kg, time <=25; settings: in vivo

SMILES | Cmax [ng/mL]
Cl.NC(COc1ccccc1C(F)(F)F)c1ccccc1 (racemic) | 226

system: not listed separately; assay: AUC in Sprague-Dawley rat at 5 mg/kg, iv measured upto 25 hrs by LCMS analysis; assay type: ADME, organism-based; parameters: route intravenous, dose 5 mg/kg, time <=25; settings: in vivo

SMILES | AUC [ng·h/mL]
Cl.NC(COc1ccccc1C(F)(F)F)c1ccccc1 (racemic) | 544

system: not listed separately; assay: AUC in Sprague-Dawley rat at 25 mg/kg, po measured upto 25 hrs by LCMS analysis; assay type: ADME, organism-based; parameters: route oral, dose 25 mg/kg, time <=25; settings: in vivo

SMILES | AUC [ng·h/mL]
Cl.NC(COc1ccccc1C(F)(F)F)c1ccccc1 (racemic) | 1008

system: not listed separately; assay: Half life in Sprague-Dawley rat at 5 mg/kg, iv measured upto 25 hrs by LCMS analysis; assay type: ADME, organism-based; settings: in vivo

SMILES | t1/2 [days]
Cl.NC(COc1ccccc1C(F)(F)F)c1ccccc1 (racemic) | 0.133

system: not listed separately; assay: Half life in Sprague-Dawley rat at 25 mg/kg, po measured upto 25 hrs by LCMS analysis; assay type: ADME, organism-based; settings: in vivo

SMILES | t1/2 [days]
Cl.NC(COc1ccccc1C(F)(F)F)c1ccccc1 (racemic) | 0.271

system: not listed separately; assay: Oral bioavailability in Sprague-Dawley rat at 25 mg/kg measured upto 25 hrs by LCMS analysis; assay type: ADME, organism-based; settings: in vivo

SMILES | bioavailability [%]
Cl.NC(COc1ccccc1C(F)(F)F)c1ccccc1 (racemic) | 38

molecular target: Cytochrome P450 3A4 (Homo sapiens, UniProt P08684); assay: Drug metabolism assessed as human CYP3A4-mediated metabolism per ug protein; assay type: ADME; settings: recombinant enzyme
Sequence (P08684 whole entry): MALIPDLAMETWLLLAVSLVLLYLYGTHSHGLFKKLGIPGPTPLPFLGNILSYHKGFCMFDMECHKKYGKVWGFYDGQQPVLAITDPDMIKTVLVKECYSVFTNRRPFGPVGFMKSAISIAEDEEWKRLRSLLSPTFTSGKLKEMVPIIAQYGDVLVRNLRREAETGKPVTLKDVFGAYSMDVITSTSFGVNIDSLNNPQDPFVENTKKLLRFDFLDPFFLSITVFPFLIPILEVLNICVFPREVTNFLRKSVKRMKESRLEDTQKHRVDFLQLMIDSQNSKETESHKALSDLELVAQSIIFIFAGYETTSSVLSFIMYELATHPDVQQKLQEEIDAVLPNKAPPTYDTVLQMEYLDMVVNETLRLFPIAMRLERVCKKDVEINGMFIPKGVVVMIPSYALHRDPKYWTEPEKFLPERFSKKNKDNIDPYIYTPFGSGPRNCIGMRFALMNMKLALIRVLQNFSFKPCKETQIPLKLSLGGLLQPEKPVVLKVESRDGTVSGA

SMILES | Drug metabolism
Cc1cc(C)cc(OCC(N)c2ccccc2)c1.Cl (racemic) | Metabolite_Notdetected
Cl.NC(COc1ccccc1C(F)(F)F)c1ccccc1 (racemic) | 15.4 pmol/min

molecular target: Cytochrome P450 3A5 (Homo sapiens, UniProt P20815); assay: Drug metabolism assessed as human CYP3A5-mediated metabolism per ug protein; assay type: ADME; settings: recombinant enzyme
Sequence (P20815 whole entry): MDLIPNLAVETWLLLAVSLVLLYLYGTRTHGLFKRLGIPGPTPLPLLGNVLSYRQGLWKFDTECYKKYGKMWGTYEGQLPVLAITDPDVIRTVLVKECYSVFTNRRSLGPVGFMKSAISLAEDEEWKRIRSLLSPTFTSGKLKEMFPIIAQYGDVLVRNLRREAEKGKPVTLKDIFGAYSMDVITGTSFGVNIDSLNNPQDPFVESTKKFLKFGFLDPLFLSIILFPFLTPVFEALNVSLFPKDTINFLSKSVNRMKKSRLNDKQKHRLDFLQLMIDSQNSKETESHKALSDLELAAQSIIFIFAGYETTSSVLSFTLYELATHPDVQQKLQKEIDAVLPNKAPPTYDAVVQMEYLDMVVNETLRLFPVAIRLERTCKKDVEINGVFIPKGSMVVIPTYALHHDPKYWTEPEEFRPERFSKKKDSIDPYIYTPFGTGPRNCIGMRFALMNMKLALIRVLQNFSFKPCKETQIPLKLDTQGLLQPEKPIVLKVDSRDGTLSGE

SMILES | Drug metabolism
Cc1cc(C)cc(OCC(N)c2ccccc2)c1.Cl (racemic) | Metabolite_Notdetected
Cl.NC(COc1ccccc1C(F)(F)F)c1ccccc1 (racemic) | 42.6 pmol/min

molecular target: Cytochrome P450 2D6 (Homo sapiens, UniProt P10635); assay: Drug metabolism assessed as human CYP2D6-mediated metabolism per ug protein; assay type: ADME; settings: recombinant enzyme
Sequence (P10635 whole entry): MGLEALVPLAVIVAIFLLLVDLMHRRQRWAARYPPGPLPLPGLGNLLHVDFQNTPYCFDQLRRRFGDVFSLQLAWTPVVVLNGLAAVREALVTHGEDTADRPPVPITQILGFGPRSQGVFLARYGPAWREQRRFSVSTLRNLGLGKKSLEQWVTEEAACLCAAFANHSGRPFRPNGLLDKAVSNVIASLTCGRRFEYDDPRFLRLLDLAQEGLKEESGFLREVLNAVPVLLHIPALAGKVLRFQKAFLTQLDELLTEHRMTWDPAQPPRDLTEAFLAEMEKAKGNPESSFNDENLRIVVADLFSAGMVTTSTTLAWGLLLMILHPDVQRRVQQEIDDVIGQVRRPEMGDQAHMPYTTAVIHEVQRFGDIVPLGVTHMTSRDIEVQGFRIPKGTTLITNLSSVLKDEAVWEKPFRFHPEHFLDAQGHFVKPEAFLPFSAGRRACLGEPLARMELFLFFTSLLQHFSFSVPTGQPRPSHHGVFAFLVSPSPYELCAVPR

SMILES | Drug metabolism [pmol/min]
Cc1cc(C)cc(OCC(N)c2ccccc2)c1.Cl (racemic) | 6.9
Cl.NC(COc1ccccc1C(F)(F)F)c1ccccc1 (racemic) | 43.6

organism: Homo sapiens; assay: Selectivity index, ratio of IC50 for potassium channel (unknown origin) expressed in CHO cells assessed as reduction in potassium current to IC50 for sodium channel (unknown origin) expressed in HEK cells assessed as reduction in late inward sodium current; settings: not given

SMILES | Ratio IC50
Cc1cc(C)cc(OCC(N)c2ccccc2)c1.Cl (racemic) | 31
Cl.NC(COc1ccccc1C(F)(F)F)c1ccccc1 (racemic) | 36.1
